From the supplement of paper PMC10878532, “Sperm Toolbox—A selection of small molecules to study human spermatozoa” (PLOS ONE, 2024)
Where a name gives a salt, the structure may show the parent alone.

Key:
[1] = tested on: HepG2; assay: HepG2 toxicity (resazurin), effect normalised to DMSO (DMSO = 0); higher = more features changed / larger toxic effect; details: incubation time: 70h incubation
[2] = tested on: HeLa; assay: HeLa toxicity: nuclei-count effect normalised to DMSO (DMSO = 0); higher = more features changed / larger toxic effect; details: incubation time: 24h incubation
[3] = tested on: HeLa; assay: Cell Painting percent induction (share of features beyond 2 z-scores vs DMSO); higher = more features changed / larger toxic effect; extreme values may be limits of the assay; details: incubation time: 24h incubation
[4] = tested on: human spermatozoa; assay: total motile sperm, percent change vs DMSO (non-capacitating); higher = more of the measured sperm population than DMSO, for viability, fewer PI-positive (dead) cells than DMSO
[5] = tested on: human spermatozoa; assay: viability fold change, 1 - (PI-positive fraction / DMSO median); higher = more of the measured sperm population than DMSO, for viability, fewer PI-positive (dead) cells than DMSO; details: incubation time: 3h, non-capacitating
[6] = tested on: human spermatozoa; assay: progressively motile sperm, percent change vs DMSO (capacitating); higher = more of the measured sperm population than DMSO, for viability, fewer PI-positive (dead) cells than DMSO; details: incubation time: 30min incubation
[7] = tested on: human spermatozoa; assay: hyperactivated motile sperm, percent change vs DMSO (capacitating); higher = more of the measured sperm population than DMSO, for viability, fewer PI-positive (dead) cells than DMSO; details: incubation time: 30min incubation
[8] = tested on: human spermatozoa; assay: change in acrosome-reacted (PNA+) sperm vs DMSO, no agonist (capacitating); higher = more of the measured sperm population than DMSO, for viability, fewer PI-positive (dead) cells than DMSO; details: incubation time: 3h
[9] = tested on: human spermatozoa; assay: acrosome-reacted (PNA+) sperm after agonist cocktail, percent change vs DMSO (capacitating); higher = more of the measured sperm population than DMSO, for viability, fewer PI-positive (dead) cells than DMSO; details: incubation time: 3h, capacitating + agonist cocktail 1h
[10] = tested on: human spermatozoa; assay: progressively motile sperm, percent change vs DMSO (non-capacitating); higher = more of the measured sperm population than DMSO, for viability, fewer PI-positive (dead) cells than DMSO; extreme values may be limits of the assay
[11] = incubation time: 10min incubation, 9.99 µM
[12] = incubation time: 10min incubation, 29.9 µM
[13] = incubation time: 3h incubation, 9.99 µM
[14] = incubation time: 3h incubation, 29.9 µM
[15] = incubation time: 6h incubation, 9.99 µM
[16] = incubation time: 6h incubation, 29.9 µM
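Wherever progressively motile sperm, percent change vs DMSO (non-capacitating) is given: pooled live human sperm from at least 3 donors, tracked by automated microscopy in 0.5 s time-lapse movies, compounds at 10 and 30 µM, versus median of 16 DMSO wells per plate.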
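Wherever total motile sperm, percent change vs DMSO (non-capacitating) is given: sperm pooled from at least 3 donors, tracked in 0.5 s time-lapse movies by automated microscopy after 10 min, 3 h or 6 h with compound at 10 or 30 µM.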

Structure (SMILES)	HepG2 toxicity ([1]; 10 µM)	HepG2 toxicity ([1]; 30 µM)	HeLa toxicity: nuclei-count effect normalised ([2]; 9.99 µM)	HeLa toxicity: nuclei-count effect normalised ([2]; 29.9 µM)	Cell Painting percent induction ([3]; 9.99 µM)	Cell Painting percent induction ([3]; 29.9 µM)	total motile sperm [4, 11]	total motile sperm [4, 12]	total motile sperm [4, 13]	total motile sperm [4, 14]	total motile sperm [4, 15]	total motile sperm [4, 16]	viability fold change ([5]; 9.99 µM)	viability fold change ([5]; 29.9 µM)	progressively motile sperm ([6]; 9.99 µM)	progressively motile sperm ([6]; 29.9 µM)	hyperactivated motile sperm ([7]; 9.99 µM)	hyperactivated motile sperm ([7]; 29.9 µM)	change in acrosome-reacted ([8]; 9.99 µM)	change in acrosome-reacted ([8]; 29.9 µM)	acrosome-reacted ([9]; 9.99 µM)	acrosome-reacted ([9]; 29.9 µM)	progressively motile sperm [10, 11]	progressively motile sperm [10, 12]	progressively motile sperm [10, 13]	progressively motile sperm [10, 14]	progressively motile sperm [10, 15]	progressively motile sperm [10, 16]
CCOc1ccccc1OCCN[C@H](C)Cc1ccc(OC)c(S(N)(=O)=O)c1 [Tamsulosin]	-2.54%	9.76%	-2.07%	2.87%	0%	0%	4.75%	4.64%	1.09%	4.59%	2.47%	0.434%	-0.468	-0.658	7.35%	14.8%	26%	16.1%	0.811%	1.12%	8.46%	14.3%	3.42%	13.4%	17.3%	20.7%	23.6%	26.5%
O=c1sn(-c2cccc3ccccc23)c(=O)n1Cc1ccccc1 [Tideglusib]	-4.62%	4.74%	-2.47%	7.35%	0.036%	0%	2.52%	3.97%	-5.07%	0.868%	-6.75%	-2.88%	-1.71	-1.3	9.17%	6.85%	17.7%	-11.8%	0.723%	0.984%	5.65%	6.56%	4.02%	2.42%	-2.59%	-0.339%	-4%	-0.265%
Nc1ccc(-c2ccc3ncc4ccc(=O)n(-c5cccc(C(F)(F)F)c5)c4c3c2)cn1 [Torin 2]	97.2%	96%	83.4%	96.5%	4.68%	29.7%	-0.268%	1.3%	-8.49%	-9.72%	-12.1%	-16.1%	-0.979	-0.723	7.66%	15.1%	180%	16.9%	1.71%	1.79%	116%	129%	38.8%	34.7%	76.3%	50.7%	89.8%	47.4%
COc1cc2c(cc1OC)-c1c/c(=N\c3c(C)cc(C)cc3C)n(C)c(=O)n1CC2 [Trequinsin hydrochloride]	11.1%	40.3%	-1.54%	27.5%	0.036%	0.36%	-3.16%	-4.39%	-11.3%	-17.8%	-12.7%	-22.8%	-1.81	-1.99	8.14%	16.2%	192%	73.7%	1.55%	1.58%	102%	120%	33.3%	28.3%	76.1%	48.1%	76.6%	44%
O.O.O.OO.OO.[K+].[OH-].[V].c1cnc2c(c1)ccc1cccnc12 [bpV(phen)]	28.8%		34.3%	34.7%	0.793%	2.7%	1.25%	3.48%	-3.57%	-2.96%	-4.6%	-7.01%	-0.0835	-0.163	3.97%	14.8%	17.7%	12.9%	1.06%	1.79%	16.4%	21%	6.92%	8.6%	-1.94%	-6.75%	3.08%	-21.9%
N=C(N)Nc1nc(-c2ccc(Cl)cc2)cs1 [n-[4-(4-Chlorophenyl)-1,3-thiazol-2-yl]guanidine]	3.6%	-2.59%	9.82%	14.3%	0%	0.108%	0.678%	2.58%	1.9%	-3.38%	-0.743%	0.262%	-0.638	-0.59	10.1%	17%	17.5%	17.3%	1.42%	1.64%	15.2%	21.5%	9.51%	8.48%	24%	14.5%	19.1%	31%
